Test results reported in patent publication US20200100497A1, “SAFENERS AND FORMULATIONS CONTAINING SAFENERS, BIOCIDES AND INOCULANTS” (Bayer CropScience LP, priority 2017, published 2020).

What was measured:
[1] = Stability of CropStar formulation and thiodicarb in presence of sodium bisulfite, Example 1; type: physicochemical
Procedure: Sodium bisulfite was added to CropStar® (150 g/L imidacloprid+450 g/L thiodicarb; Bayer CropScience) in various mole ratios to formaldehyde (0.5:1, 1:1, 2:1, and 5:1) with or without pH adjustment to pH 7. Efficacy of sodium bisulfite was compared to no safener (Sample Nos. 1 & 5), two comparative safeners (Safener 1 & Safener 2), and inoculum only (BIAGRO Liquido NG—liquid inoculant and BIAGRO 10 Plus—peat-based inoculant). Safener 1 was obtained from Novozymes and contains the following active ingredients: soybean oil (CAS #8001-22-7), hydrolysed starch syrups (CAS #8029-43-4), and yeast extract (CAS #8013-01-2). Safener 2 was provided by Biagro and contains the following active ingredients: yeast extract, K2HPO4, and milk powder.

[2] = C-13 NMR stability of the formaldehyde/sodium bisulfite/N,N-dimethylamine adduct in aqueous solution; type: physicochemical; conditions: room temperature; for Conversion of N,N-dimethyl adduct back to formaldehyde bisulfite adduct: 18 days
Procedure: In a small vial, 137 mg of formaldehyde sodium bisulfite (CAS 870-72-4) was combined with 10 mL of high purity water and 200 mg of N,N-dimethylamine and stirred at room temperature to mix. The resulting mixture was stored at room temperature.
Aliquots of the mixture was analysed by C-13 NMR spectral analysis 48 hours and 18 days following formation.

Row | Compound | Degradation of thiodicarb ([1]; 1:1 mole ratio of sodium bisulfite to formaldehyde in CropStar) | Physical stability of the CropStar formulation ([1]; sodium bisulfite added to CropStar) | Conversion of N,N-dimethyl adduct back to formaldehyde bisulfite adduct [2] | Conversion of N,N-dimethyl adduct back to formaldehyde bisulfite adduct ([2]; listed as N,N-dimethylamine product) [%] | Time for which adduct is stable / takes to reverse back to formaldehyde bisulfite adduct [2] [days]
1 | O=S([O-])O.[Na+] [sodium bisulfite] | did not significantly degrade thiodicarb | without affecting the physical stability of the formulation | – | – | –
2 | CN(C)CS(=O)(=O)O [N,N-dimethyl adduct (CAS 68507-34-6), 1-(dimethylamino)-methanesulfonic acid] | – | – | approximately 3.5% | 3.5 | > 18
